Results as given in ChEMBL document CHEMBL1154397, “Synthesis and SAR of 4-substituted-2-aminopyrimidines as novel c-Jun N-terminal kinase (JNK) inhibitors” (Bioorg Med Chem Lett, 2009).

Key:
[1] = target: c-Jun N-terminal kinase, JNK (Homo sapiens, UniProt P45983+P53779+P45984); test: Inhibition of TNF-alpha-induced phosphorylation of […] in human HepG2 cells; type: cell-based
[2] = target: Mitogen-activated protein kinase 8 (Homo sapiens, UniProt P45983); test: Inhibition of JNK1
Liver microsomes = test: Metabolic stability in human liver microsomes assessed as clearance; type: ADME, Microsome
[3] = target: Voltage-gated inwardly rectifying potassium channel KCNH2 (Homo sapiens, UniProt Q12809); test: Binding affinity to human ERG
[4] = Metabolic stability in rat liver microsomes assessed as clearance; type: ADME, Microsome
[5] = Selectivity ratio of IC50 for p38MAPKgamma to IC50 for JNK1
[6] = Selectivity ratio of IC50 for p38MAPKbeta to IC50 for JNK1
[7] = target: 5'-AMP-activated protein kinase catalytic subunit alpha-2 (Homo sapiens, UniProt P54646); test: Inhibition of AMPK
[8] = target: Inhibitor of nuclear factor kappa-B kinase subunit beta (Homo sapiens, UniProt O14920); test: Inhibition of IKKb
[9] = target: Mitogen-activated protein kinase 13 (Homo sapiens, UniProt O15264); test: Inhibition of SPAK4
[10] = target: Cyclin-dependent kinase 2 (Homo sapiens, UniProt P24941); test: Inhibition of CDK2/cyclinA
[11] = target: Glycogen synthase kinase-3 beta (Homo sapiens, UniProt P49841); test: Inhibition of GSK3-beta
[12] = target: Dual specificity mitogen-activated protein kinase kinase 7 (Homo sapiens, UniProt O14733); test: Inhibition of MKK7beta
[13] = target: Mitogen-activated protein kinase 12 (Homo sapiens, UniProt P53778); test: Inhibition of SAPK3
Insulin receptor = Insulin receptor (Homo sapiens, UniProt P06213); test: Inhibition of IR
[14] = target: Dual specificity mitogen-activated protein kinase kinase 4 (Homo sapiens, UniProt P45985); test: Inhibition of MKK4
[15] = target: Mitogen-activated protein kinase 14 (Homo sapiens, UniProt Q16539); test: Inhibition of SAPK2a
[16] = target: Mitogen-activated protein kinase 11 (Homo sapiens) (UniProt Q15759); test: Inhibition of SAPK2b
[17] = target: MAP kinase-activated protein kinase 2 (Homo sapiens, UniProt P49137); test: Inhibition of MAPKAP-K2
[18] = target: Ribosomal protein S6 kinase beta-1 (Homo sapiens, UniProt P23443); test: Inhibition of P70s6K
[19] = target: Mitogen-activated protein kinase 10 (Homo sapiens, UniProt P53779); test: Inhibition of JNK3
[20] = target: Mitogen-activated protein kinase 9 (Homo sapiens, UniProt P45984); test: Inhibition of to JNK2
[21] = target: Dual specificity mitogen-activated protein kinase kinase 6 (Homo sapiens, UniProt P52564); test: Inhibition of MKK6
[22] = target: Protein kinase C theta type (Homo sapiens, UniProt Q04759); test: Inhibition of PKCtheta
[23] = target: Dual specificity mitogen-activated protein kinase kinase 1 (Homo sapiens, UniProt Q02750); test: Inhibition of MEK1
[24] = Lipophilicity, log D of the compound; type: physicochemical; conditions: octanol/water
[25] = Permeability from basolateral to apical side of human Caco-2 cells; type: ADME, cell-based; conditions: read-out: permeability
[26] = Permeability from apical to basolateral side of human Caco-2 cells; type: ADME, cell-based; conditions: read-out: permeability

Mitogen-activated protein kinase 8, sequence (P45983 whole entry): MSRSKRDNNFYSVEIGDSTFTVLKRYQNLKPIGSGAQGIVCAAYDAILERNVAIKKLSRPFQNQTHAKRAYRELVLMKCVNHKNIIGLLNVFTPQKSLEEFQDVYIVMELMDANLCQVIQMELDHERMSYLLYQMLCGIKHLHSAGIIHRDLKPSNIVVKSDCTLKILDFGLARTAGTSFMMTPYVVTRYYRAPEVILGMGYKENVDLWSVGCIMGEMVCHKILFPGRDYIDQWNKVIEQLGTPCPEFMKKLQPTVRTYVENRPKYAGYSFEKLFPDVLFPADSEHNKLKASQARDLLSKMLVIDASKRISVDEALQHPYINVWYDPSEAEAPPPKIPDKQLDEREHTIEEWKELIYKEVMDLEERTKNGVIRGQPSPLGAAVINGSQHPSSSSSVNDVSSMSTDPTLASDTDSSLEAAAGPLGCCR
Dual specificity mitogen-activated protein kinase kinase 4, sequence (P45985 whole entry): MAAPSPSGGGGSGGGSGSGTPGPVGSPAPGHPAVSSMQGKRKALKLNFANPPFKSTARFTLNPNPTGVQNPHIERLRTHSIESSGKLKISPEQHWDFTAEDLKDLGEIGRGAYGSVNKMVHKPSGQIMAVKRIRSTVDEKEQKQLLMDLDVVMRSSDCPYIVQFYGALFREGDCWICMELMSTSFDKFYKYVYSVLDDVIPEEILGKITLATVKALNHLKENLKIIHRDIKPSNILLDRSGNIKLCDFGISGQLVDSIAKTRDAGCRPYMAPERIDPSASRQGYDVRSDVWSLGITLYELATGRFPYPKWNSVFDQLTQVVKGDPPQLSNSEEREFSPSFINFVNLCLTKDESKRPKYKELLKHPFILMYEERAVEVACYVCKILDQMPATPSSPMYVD
Mitogen-activated protein kinase 14, sequence (Q16539 whole entry): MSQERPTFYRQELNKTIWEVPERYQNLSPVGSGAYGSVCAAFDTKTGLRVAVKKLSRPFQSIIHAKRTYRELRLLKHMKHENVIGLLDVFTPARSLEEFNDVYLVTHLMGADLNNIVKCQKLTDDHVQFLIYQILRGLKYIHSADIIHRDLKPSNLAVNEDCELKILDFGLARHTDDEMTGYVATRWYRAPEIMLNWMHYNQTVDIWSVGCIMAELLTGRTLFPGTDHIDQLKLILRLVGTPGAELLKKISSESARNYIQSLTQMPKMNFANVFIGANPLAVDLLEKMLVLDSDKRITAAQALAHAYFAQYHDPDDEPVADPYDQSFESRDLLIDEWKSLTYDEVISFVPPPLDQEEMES
Inhibitor of nuclear factor kappa-B kinase subunit beta, sequence (O14920 whole entry): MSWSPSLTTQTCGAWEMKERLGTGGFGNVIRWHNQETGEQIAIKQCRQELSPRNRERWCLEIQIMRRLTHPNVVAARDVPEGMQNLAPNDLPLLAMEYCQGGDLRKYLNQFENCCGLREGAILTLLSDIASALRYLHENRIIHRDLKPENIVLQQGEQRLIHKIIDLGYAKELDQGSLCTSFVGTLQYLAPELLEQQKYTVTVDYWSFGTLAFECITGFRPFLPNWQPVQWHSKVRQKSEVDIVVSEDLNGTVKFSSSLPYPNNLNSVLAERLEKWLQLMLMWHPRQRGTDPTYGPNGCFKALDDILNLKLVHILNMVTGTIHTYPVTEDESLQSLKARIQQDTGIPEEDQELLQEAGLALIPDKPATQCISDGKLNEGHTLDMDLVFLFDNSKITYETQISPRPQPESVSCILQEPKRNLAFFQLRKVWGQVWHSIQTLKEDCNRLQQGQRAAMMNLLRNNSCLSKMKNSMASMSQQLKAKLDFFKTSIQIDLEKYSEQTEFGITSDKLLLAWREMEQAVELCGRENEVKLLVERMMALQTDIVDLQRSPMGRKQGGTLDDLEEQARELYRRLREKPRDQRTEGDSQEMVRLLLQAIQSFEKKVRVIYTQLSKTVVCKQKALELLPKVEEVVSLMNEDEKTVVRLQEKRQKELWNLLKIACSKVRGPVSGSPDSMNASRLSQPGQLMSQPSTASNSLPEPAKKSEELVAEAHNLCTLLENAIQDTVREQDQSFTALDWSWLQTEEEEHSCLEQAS
Glycogen synthase kinase-3 beta, sequence (P49841 whole entry): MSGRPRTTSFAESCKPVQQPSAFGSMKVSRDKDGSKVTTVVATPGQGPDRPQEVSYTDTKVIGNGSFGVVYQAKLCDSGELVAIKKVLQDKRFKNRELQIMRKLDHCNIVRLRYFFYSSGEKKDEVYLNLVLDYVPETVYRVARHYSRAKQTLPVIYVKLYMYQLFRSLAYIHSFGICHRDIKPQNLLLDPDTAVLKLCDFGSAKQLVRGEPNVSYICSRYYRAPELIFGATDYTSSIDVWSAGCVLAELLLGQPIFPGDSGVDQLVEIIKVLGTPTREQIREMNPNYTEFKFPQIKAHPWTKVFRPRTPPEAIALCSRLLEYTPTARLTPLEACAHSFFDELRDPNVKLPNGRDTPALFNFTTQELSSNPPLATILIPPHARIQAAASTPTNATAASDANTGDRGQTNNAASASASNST
5'-AMP-activated protein kinase catalytic subunit alpha-2, sequence (P54646 whole entry): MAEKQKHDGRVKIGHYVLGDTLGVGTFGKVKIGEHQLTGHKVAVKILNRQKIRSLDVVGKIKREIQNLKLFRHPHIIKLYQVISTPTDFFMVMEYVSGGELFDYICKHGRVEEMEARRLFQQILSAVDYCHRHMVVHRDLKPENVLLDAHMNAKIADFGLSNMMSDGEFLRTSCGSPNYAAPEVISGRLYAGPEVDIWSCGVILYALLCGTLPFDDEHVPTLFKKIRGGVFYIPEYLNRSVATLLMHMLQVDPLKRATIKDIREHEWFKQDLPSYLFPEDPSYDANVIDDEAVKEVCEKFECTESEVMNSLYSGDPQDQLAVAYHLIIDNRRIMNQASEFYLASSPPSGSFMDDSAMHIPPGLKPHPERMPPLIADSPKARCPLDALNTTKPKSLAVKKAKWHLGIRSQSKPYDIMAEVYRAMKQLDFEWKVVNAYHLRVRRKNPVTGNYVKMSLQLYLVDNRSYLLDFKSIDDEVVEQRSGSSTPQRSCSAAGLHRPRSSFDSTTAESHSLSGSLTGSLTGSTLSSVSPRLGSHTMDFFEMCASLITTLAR
MAP kinase-activated protein kinase 2, sequence (P49137 whole entry): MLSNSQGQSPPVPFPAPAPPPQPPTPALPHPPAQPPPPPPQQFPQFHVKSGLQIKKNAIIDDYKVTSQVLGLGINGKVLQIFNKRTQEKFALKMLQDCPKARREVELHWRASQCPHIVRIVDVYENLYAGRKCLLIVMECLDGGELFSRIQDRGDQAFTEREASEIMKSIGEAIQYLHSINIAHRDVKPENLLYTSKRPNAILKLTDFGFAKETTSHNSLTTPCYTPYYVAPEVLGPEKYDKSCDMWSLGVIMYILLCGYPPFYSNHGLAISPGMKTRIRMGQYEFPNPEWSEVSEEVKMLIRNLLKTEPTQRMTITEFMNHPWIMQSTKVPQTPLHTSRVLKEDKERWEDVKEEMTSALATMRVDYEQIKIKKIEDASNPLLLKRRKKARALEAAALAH
Dual specificity mitogen-activated protein kinase kinase 7, sequence (O14733 whole entry): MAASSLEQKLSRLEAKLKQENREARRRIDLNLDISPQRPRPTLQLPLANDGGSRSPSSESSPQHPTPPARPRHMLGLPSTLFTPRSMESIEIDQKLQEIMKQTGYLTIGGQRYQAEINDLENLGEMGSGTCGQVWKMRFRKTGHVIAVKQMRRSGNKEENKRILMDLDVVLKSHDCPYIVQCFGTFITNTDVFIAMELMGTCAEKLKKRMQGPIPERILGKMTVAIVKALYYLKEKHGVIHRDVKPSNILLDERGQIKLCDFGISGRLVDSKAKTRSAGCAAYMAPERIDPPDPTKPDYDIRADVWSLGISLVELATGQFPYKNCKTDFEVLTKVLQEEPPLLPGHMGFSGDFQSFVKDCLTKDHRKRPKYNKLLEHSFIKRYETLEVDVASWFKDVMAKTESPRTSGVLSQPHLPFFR
Dual specificity mitogen-activated protein kinase kinase 1, sequence (Q02750 whole entry): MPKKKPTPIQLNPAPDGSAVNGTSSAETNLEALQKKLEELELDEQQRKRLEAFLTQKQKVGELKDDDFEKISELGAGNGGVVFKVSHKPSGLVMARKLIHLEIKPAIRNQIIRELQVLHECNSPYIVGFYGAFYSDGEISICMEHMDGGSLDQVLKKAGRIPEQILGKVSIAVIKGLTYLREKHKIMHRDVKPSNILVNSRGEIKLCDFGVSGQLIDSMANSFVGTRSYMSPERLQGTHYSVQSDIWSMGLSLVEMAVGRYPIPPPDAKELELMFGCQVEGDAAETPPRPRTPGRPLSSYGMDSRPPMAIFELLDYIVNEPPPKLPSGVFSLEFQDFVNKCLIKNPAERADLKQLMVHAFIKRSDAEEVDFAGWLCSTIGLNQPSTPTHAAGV
Mitogen-activated protein kinase 13, sequence (O15264 whole entry): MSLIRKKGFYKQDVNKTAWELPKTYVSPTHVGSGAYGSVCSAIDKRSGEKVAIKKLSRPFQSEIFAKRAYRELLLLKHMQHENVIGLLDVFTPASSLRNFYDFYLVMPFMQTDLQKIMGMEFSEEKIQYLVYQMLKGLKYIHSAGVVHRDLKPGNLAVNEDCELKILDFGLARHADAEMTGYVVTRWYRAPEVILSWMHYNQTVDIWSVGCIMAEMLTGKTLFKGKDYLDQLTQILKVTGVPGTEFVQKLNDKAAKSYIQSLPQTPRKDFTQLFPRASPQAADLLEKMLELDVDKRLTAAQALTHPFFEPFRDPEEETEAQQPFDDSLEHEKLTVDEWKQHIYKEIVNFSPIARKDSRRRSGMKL
Mitogen-activated protein kinase 9, sequence (P45984 whole entry): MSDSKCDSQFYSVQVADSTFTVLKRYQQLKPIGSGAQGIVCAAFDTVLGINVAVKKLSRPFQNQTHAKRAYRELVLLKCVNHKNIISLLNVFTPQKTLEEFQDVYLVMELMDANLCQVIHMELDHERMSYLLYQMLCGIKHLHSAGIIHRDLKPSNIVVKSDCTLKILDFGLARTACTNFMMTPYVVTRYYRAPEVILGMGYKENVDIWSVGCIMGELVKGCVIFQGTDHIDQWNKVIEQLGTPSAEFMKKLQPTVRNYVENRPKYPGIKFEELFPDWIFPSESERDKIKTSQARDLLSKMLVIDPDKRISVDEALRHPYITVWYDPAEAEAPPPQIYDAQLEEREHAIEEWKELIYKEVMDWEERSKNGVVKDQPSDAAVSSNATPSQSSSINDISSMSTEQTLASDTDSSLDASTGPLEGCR

Row | Compound | IC50 [1] | Ki [2] | microsomal CLint (Liver microsomes) | further results
1 | Cc1ccc(-c2n[nH]cc2-c2ccnc(NC3CCN(C)CC3)n2)cn1 | 6020 nM | 162 nM | 61 µL/min/mg | 
2 | Clc1ccc(-c2n[nH]cc2-c2ccnc(NC3CCCCC3)n2)cc1 | 1100 nM | 27 nM | 156 µL/min/mg | 
3 | CN1CCC(Nc2nccc(-c3c[nH]nc3-c3ccc(Cl)cc3)n2)CC1 |  | 1570 nM | 14 µL/min/mg | Ki [3]: 1020 nM
4 | CC(C)Nc1nccc(-c2c[nH]nc2C2CCCOC2)n1 (configuration not stated) | 357 nM | 43 nM | 34 µL/min/mg | microsomal CLint [4]: 18 µL/min/mg
5 | CS(=O)(=O)N[C@H]1CC[C@H](c2n[nH]cc2-c2ccnc(NC3CCCC3)n2)CC1 | 114 nM | 9 nM | 11 µL/min/mg | 
6 | O[C@H]1CC[C@H](c2n[nH]cc2-c2ccnc(NC3CCCC3)n2)CC1 | 98 nM |  |  | Activity [5]: 100; Activity [6]: 100
7 | c1cc(-c2cn[nH]c2C2CCCOC2)nc(NC2CCCC2)n1 (configuration not stated) | 245 nM | 12 nM | 89 µL/min/mg | 
8 | CC(C)Nc1nccc(-c2c[nH]nc2-c2ccc(Cl)cc2)n1 | 920 nM | 48 nM | 106 µL/min/mg | 
9 | CC(C)Nc1nccc(-c2cn[nH]c2C2CCN(S(C)(=O)=O)CC2)n1 | 221 nM | 101 nM | 12 µL/min/mg | microsomal CLint [4]: 52 µL/min/mg
10 | CC(C)Nc1nccc(-c2cn[nH]c2C2CCCNC2)n1 (configuration not stated) |  | 530 nM | 14 µL/min/mg | 
11 | O[C@H]1CC[C@H](c2[nH]ncc2-c2ccnc(NC3CCCC3)n2)CC1 |  | 12 nM | < 15 µL/min/mg | IC50 [7]: > 30000 nM; IC50 [8]: 13000 nM; IC50 [9]: 1200 nM; IC50 [10]: 590 nM; IC50 [11]: 1900 nM; IC50 [12]: 860 nM; IC50 [13]: 6200 nM; IC50 (Insulin receptor): > 30000 nM; IC50 [14]: 920 nM; IC50 [15]: > 30000 nM; IC50 [16]: 15000 nM; IC50 [17]: > 30000 nM; IC50 [18]: > 30000 nM; Ki [19]: 16 nM; Ki [20]: 17 nM; IC50 [21]: 15000 nM; IC50 [22]: > 30000 nM; IC50 [23]: > 30000 nM
12 | CC(C)Nc1nccc(-c2cn[nH]c2)n1 |  | 2730 nM | 21 µL/min/mg | 
13 | Clc1ccc(-c2n[nH]cc2-c2ccnc(NC3CCCC3)n2)cc1 | 460 nM | 26 nM | 116 µL/min/mg | logD [24]: 4.42
14 | CC(C)Nc1nccc(-c2cn[nH]c2C2CCCCO2)n1 (configuration not stated) | 3500 nM | 381 nM | 21 µL/min/mg | 
15 | C[C@H](CC(=O)O)Nc1nccc(-c2c[nH]nc2-c2ccc(Cl)cc2)n1 |  | 315 nM | < 6 µL/min/mg | Papp B→A [25]: 13.2 ×10⁻⁶ cm/s; Papp A→B [26]: 0.3 ×10⁻⁶ cm/s
16 | CC(C)Nc1nccc(-c2c[nH]nc2C2CCOCC2)n1 | 814 nM | 169 nM | 18 µL/min/mg | 
17 | Clc1ccc(-c2n[nH]cc2-c2ccnc(NC3CC3)n2)cc1 | 840 nM | 151 nM | 96 µL/min/mg | 
18 | CC(=O)N[C@H]1CC[C@H](c2n[nH]cc2-c2ccnc(NC3CCCC3)n2)CC1 | 299 nM | 28 nM | < 8 µL/min/mg | 
19 | Cc1ccnc(S)n1 |  | 2060 nM |  | 
20 | OC1CCCC(c2n[nH]cc2-c2ccnc(NC3CCCC3)n2)C1 (configuration not stated) | 209 nM | 36 nM | 15 µL/min/mg | 
